Test results: ChEMBL document CHEMBL5625278 (Bioorg Med Chem Lett, 2024)

Assay: Binding affinity to LAR C1536S mutant (unknown origin) assessed as inhibition constant by Michaelis-Menten analysis
Parameters: species or system Homo sapiens

Ki: 7 µM
SMILES: CC1(C)Cc2c(O)c(C=O)c3c(c2C1)C(=O)OC(O)C3 (stereo unspecified) [ILLUDALIC ACID]
